Reference: patent publication US20150051278A1, “METHOD OF EXTERMINATING HARMFUL INSECT” (KAO CORPORATION, priority 2012, published 2015)

How the values were obtained:
Type in all cases: in vivo
planthopper = experiment: Insecticidal test I; details: planthopper on rice seedling, 3 days after spraying
Experimental: A seedling of rice plant was grown in a 12 cm pot until the plant height reaches 15 cm. Ten individuals of planthopper, which had passed 3 to 5 days after emergence, were applied per one rice plant. The rice plant was trial-cultured for three repetitions. With 1 L of water, an insecticide was mixed in such an amount that the concentration of each of the compounds at the time of spraying was the amount indicated in Table 4, thereby preparing the spray liquid of insecticide. This spray liquid was sprayed on the leaf surface of the seedling of rice plant attached with planthoppers in the application amount indicated in Table 4. After air drying, the seedling of rice plant sprayed with the spray liquid was covered with a wire gauze cylinder. Three days later, the number of surviving insects was measured, and the insect killing rate (indicated as the “insect killing rate I” in Table 4) was calculated by the following equation. It means that the effect of agricultural chemical (insecticidal effect) is high as the value of the insect killing rate is high.
Insect killing rate (%)=(the number of surviving insects in non-treated area−the number of surviving insects in treated area)/the number of surviving insects in non-treated area×100

Kanzawa spider mite = experiment: Acaricidal test; details: Kanzawa spider mite on kidney bean, 3 days after spraying
Experimental: A kidney bean was grown in a 12 cm pot until to be a 5-leaf stage. Thirty individuals of Kanzawa spider mite per one plant were implanted for three repetitions. To 1 L of water, the insecticide was mixed such that the concentration of each of the compounds at the time of spraying becomes the amount indicated in Table 4 and Table 6, thereby preparing the spray liquid of insecticide. This spray liquid was sprayed on the leaf surface of the kidney bean attached with Kanzawa spider mites in the application amount indicated in Table 4 and Table 6. After air drying, the kidney bean sprayed with the spray liquid was covered with a wire gauze cylinder. Three days later, the number of surviving mites was measured, and the mite killing rate was calculated by the following equation. It means that the effect of agricultural chemical (acaricidal effect) is high as the value of the mite killing rate is high. Mite killing rate (%)=(the number of surviving mites in non-treated area−the number of surviving mites in treated area)/the number of surviving mites in non-treated area×100

cotton aphid = experiment: Insecticidal test II; details: cotton aphid on cabbage leaf, 1 day after spraying
Experimental: A cabbage seedling was grown in a 12 cm pot until to be a ten-leaf stage. The leaf of cabbage was cut and placed in a petri dish with a diameter of 9 cm, and 15 individuals of cotton aphid were trial cultured for three repetitions. With 1 L of water, the insecticide was mixed in such an amount that the concentration of each of the compounds at the time of spraying was the amount indicated in Table 4, thereby preparing the spray liquid of insecticide. This spray liquid was sprayed to the leaf surface of the cabbage attached with cotton aphids in the application amount indicated in Table 4. After air drying, the petri dish was covered with a lid, and an oxygen permeable seal was sealed around the petri dish so as to prevent the escape of the aphid therefrom. One day later, the number of surviving insects was measured, and the insect killing rate (indicated as the “insect killing rate II” in Table 4) was calculated by the following equation. It means that the effect of agricultural chemical (insecticidal effect) is high as the value of the insect killing rate is high. Insect killing rate (%)=(the number of surviving insects in non-treated area−the number of surviving insects in treated area)/the number of surviving insects in non-treated area×100

[1] = application amount 100 L/10 a, (A)+(B) concentration 1000 ppm

## Octyl alcohol [compound 22]
planthopper; 100 L/10 a, 2000 ppm
  Insect killing rate I: 24%
Kanzawa spider mite; 100 L/10 a, 2000 ppm
  Mite killing rate: 22%
Cotton aphid; 100 L/10 a, 2000 ppm
  Insect killing rate II: 34%

## Monocapric acid monoglycerine [compound 7]
planthopper; [1]
  Insect killing rate I: 46%
Kanzawa spider mite; [1]
  Mite killing rate: 40%
Cotton aphid; [1]
  Insect killing rate II: 57%
